Reference: patent US9302999B2, “Substituted triazoles as herbicides” (E. I. DU PONT DE NEMOURS AND COMPANY, priority 2012, dated 2016)

Key:
Type in all cases: in vivo
[1] = tested on: pigweed (Amaranthus retroflexus); test: Test A pre-/postemergence: pigweed
In short: (§1)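 Compounds, formulated with surfactant in non-phytotoxic solvent, were applied as a directed soil spray preemergence and as postemergence sprays to 2–10 cm, one- to two-leaf seedlings grown in loam soil blended with sand; visual injury, 0–100, assessed ~10 days post-treatment against untreated controls.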

[2] = tested on: wheat (Triticum aestivum); test: Test A pre-/postemergence: wheat
In short: as §1

[3] = tested on: barnyardgrass (Echinochloa crus-galli); test: Test B flooded paddy: barnyardgrass; conditions: Flood; 250 g ai/ha; applied to paddy water at 2-leaf stage; visually evaluated after 13 to 15 days
In short: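 Flooded-pot test: compound dosed into 3 cm of standing water above soil when plants had two leaves. Visual control ratings (0–100) versus untreated plants after 13–15 d.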

[4] = tested on: ryegrass, Italian (Italian ryegrass, Lolium multiflorum); test: Test C pre-/postemergence: ryegrass, Italian
In short: (§2)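 Preemergence on seeds in loam/sand, postemergence on 2–18 cm (1–4-leaf) plants in peat-based medium; compounds in non-phytotoxic solvent with surfactant. After 13–15 days in greenhouse, visual rating versus controls, 0 (no effect) to 100 (complete control).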

[5] = tested on: galium (catchweed bedstraw, Galium aparine); test: Test C pre-/postemergence: galium
In short: as §2

corn (Zea mays) = test: Test C pre-/postemergence: corn
In short: as §2

[6] = tested on: large crabgrass (Digitaria sanguinalis); test: Test C pre-/postemergence: large crabgrass
In short: as §2

[7] = tested on: foxtail, giant (giant foxtail, Setaria faberii); test: Test C pre-/postemergence: foxtail, giant
In short: as §2

[8] = tested on: lambsquarters (Chenopodium album); test: Test C pre-/postemergence: lambsquarters
In short: as §2

[9] = tested on: morningglory (Ipomoea coccinea); test: Test C pre-/postemergence: morningglory
In short: as §2

[10] = Postemergence, 125 g ai/ha, 0 to 100 scale, 0 is no effect, 100 is complete control
[11] = Postemergence, 500 g ai/ha, 0 to 100 scale, 0 is no effect, 100 is complete control
[12] = Preemergence, 125 g ai/ha, 0 to 100 scale where 0 is no effect and 100 is complete control
[13] = Preemergence, 500 g ai/ha, 0 to 100 scale (0 no effect, 100 complete control)
[14] = Postemergence, 31 g ai/ha, scale 0 to 100 (0 no effect, 100 complete control)
[15] = Postemergence, 62 g ai/ha, scale 0 to 100 (0 no effect, 100 complete control)
[16] = Postemergence, 125 g ai/ha, scale 0 to 100, 0 no effect, 100 complete control
[17] = Postemergence, 250 g ai/ha, scale 0 to 100 (0 no effect, 100 complete control)
[18] = Preemergence, 31 g ai/ha, scale 0 (no effect) to 100 (complete control)
[19] = Preemergence, 62 g ai/ha, scale of 0 to 100, 0 is no effect, 100 is complete control
[20] = Preemergence, 125 g ai/ha, scale 0 to 100, 0 no effect, 100 complete control
[21] = Preemergence, 250 g ai/ha, scale 0 to 100, 0 no effect, 100 complete control
[22] = Postemergence, 250 g ai/ha, scale 0 to 100

CCCc1nn(-c2ccc(C(F)(F)F)cc2)nc1Oc1ccnc(C(F)(F)F)c1 [Compound 170]
Plant response rating, Pigweed [1, 10]: 100
Pigweed plant response rating [1, 11]: 100
Plant response rating, Pigweed [1, 12]: 100
Plant response rating, Pigweed [1, 13]: 100
Plant response rating, Wheat [2, 10]: 40
Wheat plant response rating [2, 11]: 50
Plant response rating, Wheat [2, 12]: 60
Plant response rating, Wheat [2, 13]: 80
Plant response rating, Barnyardgrass (0 to 100 scale, 0 is no effect, 100 is complete control) [3]: 80
Plant response rating, Ryegrass, Italian [4, 14]: 15
Plant response rating, Ryegrass, Italian [4, 15]: 35
Plant response rating, Ryegrass, Italian [4, 16]: 35
Plant response rating, Ryegrass, Italian [4, 17]: 70
Plant response rating, Ryegrass, Italian [4, 18]: 55
Plant response rating, Ryegrass, Italian [4, 19]: 90
Plant response rating, Ryegrass, Italian [4, 20]: 95
Plant response rating, Ryegrass, Italian [4, 21]: 95
Plant response rating, Galium [5, 14]: 80
Plant response rating, Galium [5, 15]: 90
Plant response rating, Galium [5, 16]: 90
Plant response rating, Galium [5, 17]: 90
Plant response rating, Galium [5, 18]: 98
Plant response rating, Galium [5, 19]: 100
Plant response rating, Galium [5, 20]: 100
Plant response rating, Galium [5, 21]: 100
Plant response rating, Corn (corn (Zea mays); [14]): 15
Plant response rating, Corn (corn (Zea mays); [15]): 25
Plant response rating, Corn (corn (Zea mays); [16]): 30
Plant response rating, Corn (corn (Zea mays); [22]): 30
Plant response rating, Corn (corn (Zea mays); [18]): 5
Plant response rating, Corn (corn (Zea mays); [19]): 10
Plant response rating, Corn (corn (Zea mays); [20]): 15
Plant response rating, Corn (corn (Zea mays); [21]): 60
Plant response rating, Crabgrass, Large [6, 14]: 30
Plant response rating, Crabgrass, Large [6, 15]: 30
Plant response rating, Crabgrass, Large [6, 16]: 80
Plant response rating, Crabgrass, Large [6, 22]: 90
Plant response rating, Crabgrass, Large [6, 18]: 100
Plant response rating, Crabgrass, Large [6, 19]: 100
Plant response rating, Crabgrass, Large [6, 20]: 100
Plant response rating, Crabgrass, Large [6, 21]: 100
Plant response rating, Foxtail, Giant [7, 14]: 55
Plant response rating, Foxtail, Giant [7, 15]: 80
Plant response rating, Foxtail, Giant [7, 16]: 98
Plant response rating, Foxtail, Giant [7, 22]: 98
Plant response rating, Foxtail, Giant [7, 18]: 98
Plant response rating, Foxtail, Giant [7, 19]: 100
Plant response rating, Foxtail, Giant [7, 20]: 100
Plant response rating, Foxtail, Giant [7, 21]: 100
Plant response rating, Lambsquarters [8, 14]: 85
Plant response rating, Lambsquarters [8, 15]: 95
Plant response rating, Lambsquarters [8, 16]: 95
Plant response rating, Lambsquarters [8, 17]: 98
Plant response rating, Lambsquarters [8, 18]: 85
Plant response rating, Lambsquarters [8, 19]: 85
Plant response rating, Lambsquarters [8, 20]: 98
Plant response rating, Lambsquarters [8, 21]: 98
Plant response rating, Morningglory [9, 14]: 75
Plant response rating, Morningglory [9, 15]: 98
Plant response rating, Morningglory [9, 16]: 100
Plant response rating, Morningglory [9, 17]: 100
Plant response rating, Morningglory [9, 18]: 35
Plant response rating, Morningglory [9, 19]: 55
Plant response rating, Morningglory [9, 20]: 100
Plant response rating, Morningglory [9, 21]: 100

CCc1nn(-c2ccc(F)c(F)c2)nc1Oc1ccnc(C(F)(F)F)c1 [Compound 171]
Plant response rating, Pigweed [1, 10]: 100
Pigweed plant response rating [1, 11]: 100
Plant response rating, Pigweed [1, 12]: 100
Plant response rating, Pigweed [1, 13]: 100
Plant response rating, Wheat [2, 10]: 30
Wheat plant response rating [2, 11]: 40
Plant response rating, Wheat [2, 12]: 10
Plant response rating, Wheat [2, 13]: 60
Plant response rating, Barnyardgrass (0 to 100 scale, 0 is no effect, 100 is complete control) [3]: 70
Plant response rating, Ryegrass, Italian [4, 14]: 5
Plant response rating, Ryegrass, Italian [4, 15]: 5
Plant response rating, Ryegrass, Italian [4, 16]: 10
Plant response rating, Ryegrass, Italian [4, 17]: 10
Plant response rating, Ryegrass, Italian [4, 18]: 10
Plant response rating, Ryegrass, Italian [4, 19]: 50
Plant response rating, Ryegrass, Italian [4, 20]: 60
Plant response rating, Ryegrass, Italian [4, 21]: 100
Plant response rating, Galium [5, 14]: 70
Plant response rating, Galium [5, 15]: 75
Plant response rating, Galium [5, 16]: 80
Plant response rating, Galium [5, 17]: 80
Plant response rating, Galium [5, 18]: 5
Plant response rating, Galium [5, 19]: 98
Plant response rating, Galium [5, 20]: 98
Plant response rating, Galium [5, 21]: 100
Plant response rating, Corn (corn (Zea mays); [14]): 15
Plant response rating, Corn (corn (Zea mays); [15]): 15
Plant response rating, Corn (corn (Zea mays); [16]): 15
Plant response rating, Corn (corn (Zea mays); [22]): 15
Plant response rating, Corn (corn (Zea mays); [18]): 0
Plant response rating, Corn (corn (Zea mays); [19]): 0
Plant response rating, Corn (corn (Zea mays); [20]): 5
Plant response rating, Corn (corn (Zea mays); [21]): 25
Plant response rating, Crabgrass, Large [6, 14]: 15
Plant response rating, Crabgrass, Large [6, 15]: 20
Plant response rating, Crabgrass, Large [6, 16]: 40
Plant response rating, Crabgrass, Large [6, 22]: 55
Plant response rating, Crabgrass, Large [6, 18]: 85
Plant response rating, Crabgrass, Large [6, 19]: 100
Plant response rating, Crabgrass, Large [6, 20]: 100
Plant response rating, Crabgrass, Large [6, 21]: 100
Plant response rating, Foxtail, Giant [7, 14]: 25
Plant response rating, Foxtail, Giant [7, 15]: 35
Plant response rating, Foxtail, Giant [7, 16]: 55
Plant response rating, Foxtail, Giant [7, 22]: 70
Plant response rating, Foxtail, Giant [7, 18]: 98
Plant response rating, Foxtail, Giant [7, 19]: 100
Plant response rating, Foxtail, Giant [7, 20]: 100
Plant response rating, Foxtail, Giant [7, 21]: 100
Plant response rating, Lambsquarters [8, 14]: 75
Plant response rating, Lambsquarters [8, 15]: 75
Plant response rating, Lambsquarters [8, 16]: 95
Plant response rating, Lambsquarters [8, 17]: 95
Plant response rating, Lambsquarters [8, 18]: 100
Plant response rating, Lambsquarters [8, 19]: 100
Plant response rating, Lambsquarters [8, 21]: 100
Plant response rating, Morningglory [9, 14]: 60
Plant response rating, Morningglory [9, 15]: 65
Plant response rating, Morningglory [9, 16]: 98
Plant response rating, Morningglory [9, 18]: 0
Plant response rating, Morningglory [9, 19]: 20
Plant response rating, Morningglory [9, 20]: 25
Plant response rating, Morningglory [9, 21]: 25

CCCc1nn(-c2ccc(F)c(F)c2)nc1Oc1ccnc(C(F)(F)F)c1 [Compound 172]
Plant response rating, Pigweed [1, 10]: 100
Pigweed plant response rating [1, 11]: 100
Plant response rating, Pigweed [1, 12]: 100
Plant response rating, Pigweed [1, 13]: 100
Plant response rating, Wheat [2, 10]: 40
Wheat plant response rating [2, 11]: 50
Plant response rating, Wheat [2, 12]: 50
Plant response rating, Wheat [2, 13]: 70
Plant response rating, Barnyardgrass (0 to 100 scale, 0 is no effect, 100 is complete control) [3]: 80
Plant response rating, Ryegrass, Italian [4, 14]: 10
Plant response rating, Ryegrass, Italian [4, 15]: 20
Plant response rating, Ryegrass, Italian [4, 16]: 35
Plant response rating, Ryegrass, Italian [4, 17]: 40
Plant response rating, Ryegrass, Italian [4, 18]: 100
Plant response rating, Ryegrass, Italian [4, 19]: 100
Plant response rating, Ryegrass, Italian [4, 20]: 100
Plant response rating, Ryegrass, Italian [4, 21]: 100
Plant response rating, Galium [5, 14]: 90
Plant response rating, Galium [5, 15]: 90
Plant response rating, Galium [5, 16]: 90
Plant response rating, Galium [5, 17]: 90
Plant response rating, Galium [5, 18]: 80
Plant response rating, Galium [5, 19]: 100
Plant response rating, Galium [5, 20]: 100
Plant response rating, Galium [5, 21]: 100
Plant response rating, Corn (corn (Zea mays); [14]): 20
Plant response rating, Corn (corn (Zea mays); [15]): 20
Plant response rating, Corn (corn (Zea mays); [16]): 25
Plant response rating, Corn (corn (Zea mays); [22]): 30
Plant response rating, Corn (corn (Zea mays); [18]): 5
Plant response rating, Corn (corn (Zea mays); [19]): 5
Plant response rating, Corn (corn (Zea mays); [20]): 15
Plant response rating, Corn (corn (Zea mays); [21]): 40
Plant response rating, Crabgrass, Large [6, 14]: 20
Plant response rating, Crabgrass, Large [6, 15]: 55
Plant response rating, Crabgrass, Large [6, 16]: 65
Plant response rating, Crabgrass, Large [6, 22]: 95
Plant response rating, Crabgrass, Large [6, 18]: 100
Plant response rating, Crabgrass, Large [6, 19]: 100
Plant response rating, Crabgrass, Large [6, 20]: 100
Plant response rating, Crabgrass, Large [6, 21]: 100
Plant response rating, Foxtail, Giant [7, 14]: 35
Plant response rating, Foxtail, Giant [7, 15]: 35
Plant response rating, Foxtail, Giant [7, 16]: 80
Plant response rating, Foxtail, Giant [7, 22]: 95
Plant response rating, Foxtail, Giant [7, 18]: 100
Plant response rating, Foxtail, Giant [7, 19]: 100
Plant response rating, Foxtail, Giant [7, 20]: 100
Plant response rating, Foxtail, Giant [7, 21]: 100
Plant response rating, Lambsquarters [8, 14]: 98
Plant response rating, Lambsquarters [8, 15]: 98
Plant response rating, Lambsquarters [8, 16]: 98
Plant response rating, Lambsquarters [8, 17]: 98
Plant response rating, Lambsquarters [8, 18]: 90
Plant response rating, Lambsquarters [8, 19]: 90
Plant response rating, Lambsquarters [8, 20]: 95
Plant response rating, Lambsquarters [8, 21]: 95
Plant response rating, Morningglory [9, 14]: 65
Plant response rating, Morningglory [9, 15]: 80
Plant response rating, Morningglory [9, 17]: 80
Plant response rating, Morningglory [9, 18]: 30
Plant response rating, Morningglory [9, 19]: 35
Plant response rating, Morningglory [9, 20]: 55
Plant response rating, Morningglory [9, 21]: 70
